Here are results for one molecule from US20220175675A1, “ENCAPSULATING MOLECULES IN FAT GLOBULES” (The Regents of the University of California, priority 2019, published 2022).

The structures appear in SMILES notation.

A short description of this series: Gastric stability of vitamin D3 in simulated gastric fluid (LC-MS). Format: in vitro ADME. The note with it: 2 h, 37° C., pH 3, pepsin. The protocol: Degradation of VD3 under the simulated gastric conditions was performed on free VD3 and encapsulated VD3. The simulated gastric fluid (SGF) was prepared according to the method of Minekus et al. (2014). In summary, electrolyte solution was prepared in Milli-Q water at 1.25× of the final concentration and stored at 37° C. To prepare 10 mL solution to be used in the digestion procedure: 7.5 mL SGF, 6 mg pepsin solubilized in 1.6 mL SGF, 5 μL of 0.3 M CaCl2(H2O)2 prepared in water and filtered through a 0.22 μm PSE syringe filter. The pH value was corrected to reach 3, and if needed, water was added to reach 10mL (approximately […]). The solution was then placed in a 37° C. incubator to equilibrate. Cream separated at the end of the incubation period with VD3 was suspended in water at 8% w/v and allowed to briefly incubate at 37° C.
The separated cream (250 mg) containing VD3, obtained as described before, was added to 5 mL of SGF. For the digestion of free VD3 in methanol, 25 μL of 40 mg/mL solution was added to […] of SGF. Solutions were briefly purged with nitrogen and sealed securely. Simulated digestion was carried for 2h at 37° C. At the end of the incubation step, ethanolic pyrogallol solution (10 mL, 1% w/v) was added and vortexed vigorously. Potassium hydroxide (2 mL, 50%w/v) was then added and mixed. […]

Regarding `C=C1CC[C@H](O)C/C1=C/C=C1\CCC[C@]2(C)[C@@H]([C@H](C)CCCC(C)C)CC[C@@H]12` [Cholecalciferol], the “degradation/loss of VD3 in simulated gastric fluid” value is on record as “approximately 6%” (listed as free VD3) and “approximately 8%” (listed as un-encapsulated VD3).
